In patent US8221729B2, “Use of aminophenylbenzotriazole derivatives for protecting human and animal skin and hair from the harmful effects of UV radiation and cosmetic compositions thereof” (BASF SE, priority 2006, dated 2012):

Experiment: UV-spectrum in ethanol
Format: physicochemical
Details: for UV-spectrum: ε: at λmax, in M-1cm-1 (unit assumed)

| SMILES | UV-spectrum: λmax | UV-spectrum: ε |
| --- | --- | --- |
| CCN(CC)c1ccc(-n2nc3ccccc3n2)c(O)c1 [Example A-1] | 385 nm | 29591 |
| CCCCCC(=O)Nc1ccc(-n2nc3ccccc3n2)c(O)c1 [Example A-2] | 346 nm | 29933 |
